This is an account of results in PMC10978946, “Coumarin linked to 2-phenylbenzimidazole derivatives as potent α-glucosidase inhibitors” (Scientific Reports, 2024).

Read-outs that look alike come from different tables or passages of the source.

Data set [1] deals with T1, α-Glucosidase (Saccharomyces cerevisiae, EC3.2.1.20) (Saccharomyces cerevisiae, UniProt P53341).
T1 construct: purchased Sigma-Aldrich
Put plainly: biochemical. It counts as biochemical. Here is the method:
α-Glucosidase (Saccharomyces cerevisiae, EC3.2.1.20, 20 U/mg) and the substrate, […] (p-NPG) were purchased from Sigma-Aldrich, and the assay was performed exactly according to our previous report[34],[35].

The target in data set [2] is T2, α-glucosidase (Saccharomyces cerevisiae, UniProt P53341).
T2 construct: purchased Sigma-Aldrich
T2 sequence (P53341 whole entry): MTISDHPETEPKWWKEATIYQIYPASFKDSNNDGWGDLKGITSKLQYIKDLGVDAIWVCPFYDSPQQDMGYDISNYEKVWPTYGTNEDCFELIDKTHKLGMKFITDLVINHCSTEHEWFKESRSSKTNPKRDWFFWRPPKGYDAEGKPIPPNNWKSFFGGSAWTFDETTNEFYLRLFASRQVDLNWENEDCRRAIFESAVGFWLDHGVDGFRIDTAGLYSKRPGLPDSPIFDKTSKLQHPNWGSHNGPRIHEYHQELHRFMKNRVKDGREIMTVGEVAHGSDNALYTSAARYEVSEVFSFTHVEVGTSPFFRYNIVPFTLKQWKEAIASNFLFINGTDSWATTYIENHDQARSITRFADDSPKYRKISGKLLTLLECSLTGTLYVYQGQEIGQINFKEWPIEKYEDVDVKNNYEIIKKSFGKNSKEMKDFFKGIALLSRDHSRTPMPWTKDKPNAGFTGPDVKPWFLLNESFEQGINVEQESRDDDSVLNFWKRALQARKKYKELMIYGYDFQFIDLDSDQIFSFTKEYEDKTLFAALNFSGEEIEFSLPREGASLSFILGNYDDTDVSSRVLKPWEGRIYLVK
Put plainly: Enzyme kinetic studies (Lineweaver–Burk plot, secondary plot). It counts as biochemical. Here is the method: A Lineweaver–Burk plot was generated to identify the type of inhibition and Km value was determined from the plot between the reciprocal of the substrate concentration (1/[S]) and reciprocal of enzyme rate (1/V) over various inhibitor concentrations. Experimental Ki value was constructed by secondary plots of the inhibitor concentration [I] versus Km.

Data set [3] concerns the target α-glucosidase. The settings on record: cited from earlier work; for fold more potent than acarbose: literature coumarin derivatives versus acarbose.
The target of data set [4] is yeast α-glucosidase. Also noted: method as in PMID 26637946. The settings on record: compound D and its acarbose control; cited from earlier work.
[5] abbreviates: supplement sheet IC50 values, unrounded, unit inferred.

T1 sequence (P53341 whole entry): as above

`O=C(Oc1ccc2ccc(=O)oc2c1)c1ccc2[nH]c(-c3ccccc3)nc2c1` [Compound 5a, 2-Oxo-2H-chromen-7-yl 2-phenyl-1H-benzo[d]imidazole-5-carboxylate] registered a melting point of 180 to 183 °C. The compound further returned an IC50 in data set [1] of 50 ± 0.8 µM. The “fold better than acarbose” value in data set [1] (ratio of IC50 values versus acarbose) is recorded as “approximately 15 fold”. The same compound yielded an IC50 in data set [1] (setting [5]) of 50 µM.
As to `O=C(Oc1ccc2ccc(=O)oc2c1)c1ccc2[nH]c(-c3ccc(Cl)cc3)nc2c1` [Compound 5c, 2-Oxo-2H-chromen-7-yl 2-(4-chlorophenyl)-1H-benzo[d]imidazole-5-carboxylate], the melting point was in the range of 180 to 182 °C. Moreover, the 50% inhibitory concentration (IC50) in data set [1] was 26.9 ± 1.1 µM. The compound further registered an IC50 in data set [1] (setting [5]) of 26.9 µM.
`Cc1ccc(-c2nc3cc(C(=O)Oc4ccc5ccc(=O)oc5c4)ccc3[nH]2)cc1` [Compound 5i, 2-Oxo-2H-chromen-7-yl 2-(p-tolyl)-1H-benzo[d]imidazole-5-carboxylate] had a melting point of 193 to 195 °C. The same compound gave an IC50 in data set [1] of 44.9 µM. 44.9 µM corresponded to half-maximal inhibition in data set [1] (setting [5]) (IC50).
`O=C(Oc1ccc2ccc(=O)oc2c1)c1ccc2[nH]c(-c3ccccc3O)nc2c1` [Compound 5k, 2-Oxo-2H-chromen-7-yl 2-(2-hydroxyphenyl)-1H-benzo[d]imidazole-5-carboxylate] returned a melting point of 187 to 189 °C. Also, half-maximal inhibition in data set [1] (IC50) required 10.8 ± 0.1 µM. Moreover, in data set [1] (IC50 comparison 5k versus 5d), the “fold more potent than compound 5d” value is reported as “twofold”. Further, in data set [2] (Lineweaver–Burk plot, Km increased, Vmax unchanged), the inhibition pattern result is recorded as “competitive inhibition pattern”. The Ki in data set [2] (from plot of Km versus inhibitor concentration, substrate p-nitrophenyl α-D-glucopyranoside 1–16 mM, read-out: inhibition constant (Ki)) came out at 10.4 µM.
`O=C(Oc1ccc2ccc(=O)oc2c1)c1ccc2[nH]c(-c3ccc(F)cc3F)nc2c1` [Compound 5g, 2-Oxo-2H-chromen-7-yl 2-(2,4-difluorophenyl)-1H-benzo[d]imidazole-5-carboxylate] registered a melting point of 201 to 203 °C. Besides, in data set [1], the IC50 was determined as 46.7 ± 0.2 µM. In data set [1] (setting [5]), the IC50 came out at 46.7 µM.
Regarding `COc1ccc(-c2nc3cc(C(=O)N/N=C/c4cccs4)ccc3[nH]2)cc1` [Compound E], the IC50 in data set [3] (Fig. 1, compound E and its acarbose control) is 60.1 µM.
As to `Cc1cc2nc(-c3ccc(C(=O)N/N=C/c4cc(O)c(O)c(O)c4)cc3)[nH]c2cc1C` [Compound D], in data set [4], the concentration for half-maximal inhibition (IC50) is 8.4 µM.
Turning to `O=C(Oc1ccc2ccc(=O)oc2c1)c1ccc2[nH]c(-c3ccc(Br)cc3)nc2c1` [Compound 5d, 2-Oxo-2H-chromen-7-yl 2-(4-bromophenyl)-1H-benzo[d]imidazole-5-carboxylate], the melting point fell in the range of 179 to 181 °C. For the same compound, the midpoint of inhibition in data set [1], the IC50, lay at 22.9 ± 0.2 µM. This compound also yielded an IC50 in data set [1] (setting [5]) of 23 µM.
As for `Cc1ccc(/C=C/C(=O)Oc2cc(=O)oc3ccccc23)cc1` [Compound B], the IC50 in data set [3] (Fig. 1, compound B and its ursolic acid control) was 13 µM.
In the case of `O=C(Oc1ccc2ccc(=O)oc2c1)c1ccc2[nH]c(-c3ccccc3Cl)nc2c1` [Compound 5e, 2-Oxo-2H-chromen-7-yl 2-(2-chlorophenyl)-1H-benzo[d]imidazole-5-carboxylate], the melting point fell in the range of 189 to 191 °C. Also, inhibition in data set [1] was half-maximal at 34.7 ± 0.7 µM (IC50). In data set [1] (setting [5]), this compound registered an IC50 of 34.7 µM.
Turning to `COc1cc(-c2nc3ccccc3[nH]2)ccc1OCC(=O)Nc1ccc(F)cc1` [Compound F], the IC50 in data set [3] (Fig. 1, compound F and its acarbose control) is 99.6 µM.
Turning to `COc1ccc(-c2nc3cc(C(=O)Oc4ccc5ccc(=O)oc5c4)ccc3[nH]2)cc1` [Compound 5j, 2-Oxo-2H-chromen-7-yl 2-(4-methoxyphenyl)-1H-benzo[d]imidazole-5-carboxylate], the melting point lay in the range of 169 to 171 °C. This compound registered an IC50 in data set [1] of 40.3 ± 0.5 µM.
In turn, `Cc1c(Cl)cccc1-c1nc2cc(C(=O)Oc3ccc4ccc(=O)oc4c3)ccc2[nH]1` [Compound 5m, 2-Oxo-2H-chromen-7-yl 2-(3-chloro-2-methylphenyl)-1H-benzo[d]imidazole-5-carboxylate] displayed a melting point of 182 to 184 °C. 40.9 ± 1.1 µM corresponded to half-maximal inhibition in data set [1] (IC50). 40.9 µM corresponded to half-maximal inhibition in data set [1] (setting [5]) (IC50).
For `Cc1c(-c2nc3cc(C(=O)Oc4ccc5ccc(=O)oc5c4)ccc3[nH]2)cccc1[N+](=O)[O-]` [Compound 5l, 2-Oxo-2H-chromen-7-yl 2-(2-methyl-3-nitrophenyl)-1H-benzo[d]imidazole-5-carboxylate], the melting point was 194 to 196 °C. This compound also had an IC50 in data set [1] of 119.5 ± 0.1 µM. In addition, the “fold decrease of inhibitory activity versus compound 5m” value in data set [1] (3-chloro replaced with 3-nitro) is reported as “three folds”. Also, in data set [1] (setting [5]), half-maximal inhibition (IC50) was put at 119 µM.
For `C/C(=N\OC(=O)/C=C/c1ccc(Br)cc1)c1cc2ccc(Br)cc2oc1=O` [Compound C], in data set [3] (Fig. 1, compound C and its acarbose control), the IC50 was 2.54 µM. Further, in data set [3], the “fold more potent than acarbose” value is on record as 252 fold.
Consider `O=C(Oc1ccc2ccc(=O)oc2c1)c1ccc2[nH]c(-c3cccc(Br)c3)nc2c1` [Compound 5f, 2-Oxo-2H-chromen-7-yl 2-(3-bromophenyl)-1H-benzo[d]imidazole-5-carboxylate], for which the melting point was 172 to 174 °C. The IC50 in data set [1] was determined as 25.2 ± 0.5 µM. Besides, the IC50 in data set [1] (setting [5]) was found to be 25.2 µM.
For the compound `O=C(N/N=C/c1ccccc1O)c1cc2ccccc2oc1=O` [Compound A], in data set [3] (Fig. 1, compound A and its acarbose control), the concentration for half-maximal inhibition (IC50) was 1.1 µM. For the same compound, in data set [3], the “fold more potent than acarbose” value is listed as 35.8 fold.
As to `O=C(Oc1ccc2ccc(=O)oc2c1)c1ccc2[nH]c(-c3ccc(F)cc3)nc2c1` [Compound 5b, 2-Oxo-2H-chromen-7-yl 2-(4-fluorophenyl)-1H-benzo[d]imidazole-5-carboxylate], the melting point was 195 to 197 °C. This compound also showed an IC50 in data set [1] of 30.6 ± 0.4 µM. For the same compound, inhibition in data set [1] (setting [5]) was half-maximal at 30.6 µM (IC50).
In the case of `O=C(Oc1ccc2ccc(=O)oc2c1)c1ccc2[nH]c(-c3cccc(Cl)c3Cl)nc2c1` [Compound 5h, 2-Oxo-2H-chromen-7-yl 2-(2,3-dichlorophenyl)-1H-benzo[d]imidazole-5-carboxylate], the melting point was 182 to 184 °C. It took 45.2 ± 0.2 µM to reach half-maximal inhibition in data set [1] (IC50). In data set [1] (setting [5]), this compound returned an IC50 of 45.3 µM.
